Experimental data reported in patent US7862837B2, “Herbal composition” (Piramal Life Sciences Limited, priority 2006, dated 2011).
Converted amounts (≈) assume the structure as drawn.

Tests used:
TNF-α = experiment: LPS-induced TNF-α production in hPBMCs (primary screening, ELISA); assay type: cell-based, human; details: LPS-stimulated hPBMCs
Method: (§1) TNF-α production by lipopolysaccharides (LPS) in hPBMCs was measured according to the method described by Jansky, L. et al (Physiol. Res. 52: 593-598, (2003)). Blood was collected from healthy donors into Ethylene diamine tetra acetic acid Potassium salt (Potassium EDTA) vacutainer tubes (BD vacutainer). The PBMCs were isolated using gradient centrifugation in Histopaque-1077 solution (Sigma). Isolated PBMCs were suspended in Roswell Park Memorial Institute (RPMI) 1640 culture medium (Gibco BRL, Pasley, UK) containing 10% fetal bovine serum (FBS) (Hyclone, Utah, USA), 100 U/ml penicillin (Sigma Chemical Co. St Louis, Mo.) and 100 μg/ml streptomycin (Sigma Chemical Co. St Louis, Mo.). The cell concentration was adjusted to 1×10^6 cells/ml. The viability as determined by trypan blue dye exclusion was uniformly ≧98%. The cell suspension (100 μl) was added to the wells of a 96-well culture plate. Following cell plating, 79 μl of the culture medium and 1 μl of eight different concentrations of the test compounds (final concentration 0.03, 0.1, 0.3, 1, 3, 10, 30, 100 μg/ml) dissolved in dimethylsulfoxide, (DMSO) Sigma, Mo., USA) were added to the cells. The final concentration of DMSO was adjusted to 0.5%. The vehicle (0.5% DMSO) was used as control. Rolipram (100, 300 μM) was used as a standard. The plates were incubated for 30 min at 37° C. in an atmosphere of 5% carbon dioxide (CO2). Finally, 20 μl (10 μg/ml) per well of LPS, (Escherchia coli 0127:B8, Sigma Chemical Co., St. Louis, Mo.) was added, for a final concentration of 1 μg/ml. The plates were incubated at 37° C. for 5 h in an atmosphere of 5% carbon dioxide (CO2). To assess the cytotoxic effect of the plant extracts, the cellular viability test was performed using 3-(4,5-dimethylthiazol-2-yl)-5-(3-carboxymethoxyphenyl)-2-(4-sulfonyl)-2H-tetrazolium) (MTS) reagent after 5 h of incubation. Supernatants were harvested and assayed for TNF-α by ELISA as described by the manufacturer (OptiElA ELISA sets, BD Biosciences, Pharmingen). […] Percent cytotoxicity of the test compound compared to control is evaluated.

[1] = test system: human peripheral blood mononuclear cells; experiment: Cellular viability test (MTS) in hPBMCs; assay type: cell-based
Method: as §1, with “standard.” for “standard. The plates were incubated for 30 min at 37° C. in an atmosphere of 5% carbon dioxide (CO2). Finally, 20 μl (10 μg/ml) per well of LPS, (Escherchia coli 0127:B8, Sigma Chemical Co., St. Louis, Mo.) was added, for a final concentration of 1 μg/ml. The plates were incubated at 37° C. for 5 h in an atmosphere of 5% carbon dioxide (CO2). To assess the cytotoxic effect of the plant extracts, the cellular viability test was performed using 3-(4,5-dimethylthiazol-2-yl)-5-(3-carboxymethoxyphenyl)-2-(4-sulfonyl)-2H-tetrazolium) (MTS) reagent after 5 h of incubation. Supernatants were harvested and assayed for TNF-α by ELISA as described by the manufacturer (OptiElA ELISA sets, BD Biosciences, Pharmingen).”

interleukin-1β (IL-1β) = experiment: IL-1β released by LPS-stimulated hPBMCs (ELISA); assay type: cell-based, human
Method: TNF-α production by lipopolysaccharides (LPS) in hPBMCs was measured according to the method described by Jansky, L. et al (Physiol. Res. 52: 593-598, (2003)). Blood was collected from healthy donors into Ethylene diamine tetra acetic acid Potassium salt (Potassium EDTA) vacutainer tubes (BD vacutainer). The PBMCs were isolated using gradient centrifugation in Histopaque-1077 solution (Sigma). Isolated PBMCs were suspended in Roswell Park Memorial Institute (RPMI) 1640 culture medium (Gibco BRL, Pasley, UK) containing 10% fetal bovine serum (FBS) (Hyclone, Utah, USA), 100 U/ml penicillin (Sigma Chemical Co. St Louis, Mo.) and 100 μg/ml streptomycin (Sigma Chemical Co. St Louis, Mo.). The cell concentration was adjusted to 1×10^6 cells/ml. The viability as determined by trypan blue dye exclusion was uniformly ≧98%. The cell suspension (100 μl) was added to the wells of a 96-well culture plate. […] Percent cytotoxicity of the test compound compared to control is evaluated.
The effect of the plant extract on the proinflammatory cytokines: interleukin-1β (IL-1β), interleukin-6 (IL-6) and interleukin-8 (IL-8) was measured using the supernatants generated in the primary screening assay. […]

Row | SMILES | inhibition at 100 µM (TNF-α; Homo sapiens, 100 μM, read-out: % Inhibition of TNF-α release) [%] | inhibition at 300 µM (TNF-α; Homo sapiens, 300 μM, read-out: % Inhibition of TNF-α release) [%] | % Toxicity 5 h ([1]; 100 μM) [%] | % Toxicity 5 h ([1]; 300 μM) [%] | IC50, TNF-α inhibition (TNF-α) [µg/mL] | IC50 against IL-1 (interleukin-1β (IL-1β)) [µg/mL]
1 | COc1ccc(C2CNC(=O)C2)cc1OC1CCCC1 (stereo not drawn) [Rolipram] | 100 | 100 | 2 | 10 | – | –
2 | CC1=CCCC2C1(C)CCC(C)C2(C)CCC1=CC(=O)OC1O (stereo not drawn) [Compound 1, 16-hydroxycleroda-3,13(14)-dien-15,16-olide] | – | – | – | – | 5.9 (≈ 18.5 µM) | 0.4 (≈ 1.26 µM)
